Laboratory results published in patent publication US12180193B2, “Accelerating fibrosarcoma protein degrading compounds and associated methods of use” (Arvinas Operations, Inc., priority 2020, dated 2024).

Key:
BRAF V600E = target: T1, BRAF V600E (Homo sapiens, UniProt P15056, V600E); assay: Cellular assay of target protein degradation, T-Rex 293 cells stably transfected with HA-BRAF_V600E (HA immunofluorescence, high content imaging); assay type: cell-based; settings: T-Rex 293 HA-BRAF V600E; for DC50: half maximal degradation, read-out: BRaf V600E DC50; for Dmax: maximum degradation observed
T1 construct: expressed in transfected cells
T1 sequence (P15056 whole entry V600E): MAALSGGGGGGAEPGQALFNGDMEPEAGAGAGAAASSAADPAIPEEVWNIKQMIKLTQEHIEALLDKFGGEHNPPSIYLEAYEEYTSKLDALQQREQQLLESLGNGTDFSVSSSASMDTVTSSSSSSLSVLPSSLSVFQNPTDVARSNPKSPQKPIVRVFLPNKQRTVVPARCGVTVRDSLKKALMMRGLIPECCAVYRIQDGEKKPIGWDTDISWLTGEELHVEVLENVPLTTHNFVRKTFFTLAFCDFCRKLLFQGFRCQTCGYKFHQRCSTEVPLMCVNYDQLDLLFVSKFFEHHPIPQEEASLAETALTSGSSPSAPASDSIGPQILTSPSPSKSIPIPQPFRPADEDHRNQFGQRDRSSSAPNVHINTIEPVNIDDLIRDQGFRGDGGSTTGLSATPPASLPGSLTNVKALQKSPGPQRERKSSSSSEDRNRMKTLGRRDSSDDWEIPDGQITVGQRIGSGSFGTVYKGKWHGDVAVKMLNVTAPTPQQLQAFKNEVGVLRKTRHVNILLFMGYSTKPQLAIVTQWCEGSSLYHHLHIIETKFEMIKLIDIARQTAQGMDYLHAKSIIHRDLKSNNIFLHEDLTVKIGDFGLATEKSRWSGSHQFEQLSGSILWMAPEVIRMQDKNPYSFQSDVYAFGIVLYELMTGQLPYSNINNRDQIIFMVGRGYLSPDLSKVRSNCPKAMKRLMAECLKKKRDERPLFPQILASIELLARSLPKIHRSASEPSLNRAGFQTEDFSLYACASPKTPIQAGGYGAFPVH
Summary of the method: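 Doxycycline-induced (1 ng/mL) cells were treated 24 h at 37 °C with compound at 1 μM to 0.1 nM final in 0.1% DMSO. After fixation, permeabilization and blocking, anti-HA staining was imaged by high-content reading; DC50 and Dmax (% of control) were derived.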

BRAF G466V = target: T2, BRAF G466V (Homo sapiens, UniProt P15056, G466V); assay: Cellular assay of target protein degradation, T-Rex 293 cells stably transfected with HA-BRAF G466V (HA immunofluorescence, high content imaging); assay type: cell-based; settings: T-Rex 293 HA-BRAF G466V; for DC50: half maximal degradation, read-out: BRaf G466V DC50; for Dmax: maximum degradation observed
T2 construct: expressed in transfected cells
T2 sequence (P15056 whole entry G466V): as the sequence (P15056 whole entry V600E) above, with G466V, E600V counted along it
Summary of the method: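 Cells expressing doxycycline-induced (0.75 ng/mL) HA-BRAF G466V were treated with compound at 30 nM to 3 pM in 0.1% DMSO for 24 hours at 37° C. After fixation and permeabilization, HA was immunostained and quantified by high content imaging to derive DC50 and Dmax.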

Row | DC50 (BRAF V600E) [nM] | Dmax (BRAF V600E) [%] | DC50 (BRAF G466V) [nM] | Dmax (BRAF G466V) [%] | SMILES
1 | 5 to 50 | 35 to 70 | 1 to 10 | > 70 | CCCS(=O)(=O)Nc1ccc(F)c(C(=O)c2c[nH]c3ncc(-c4ccc(N5CC6(CN(CC7CCN(c8cc9c(c(OC)c8)C(=O)N([C@@H]8CCC(=O)NC8=O)C9)CC7)C6)C5)cc4)cc23)c1F [Compound 238, N-{3-[5-(4-{6-[(1-{2-[(3R)-2,6-dioxopiperidin-3-yl]-7-methoxy-1-oxo-2,3-dihydro-1H-isoindol-5-yl}piperidin-4-yl)methyl]-2,6-diazaspiro[3.3]heptan-2-yl}phenyl)-1H-pyrrolo[2,3-b]pyridine-3-carbonyl]-2,4-difluorophenyl}propane-1-sulfonamide]
2 | > 500 | > 70 | 1 to 10 | > 70 | O=C1CCC(N2Cc3cc(C4CCN(C[C@@H](O)Cc5ccc(-c6cnc7[nH]cc(C(=O)c8c(F)ccc(NS(=O)(=O)N9CC[C@@H](F)C9)c8F)c7c6)cc5)CC4)ccc3C2=O)C(=O)N1 (stereo partly drawn) [Compound 118, (3R)-N-[3-(5-{4-[(2S)-3-{4-[2-(2,6-dioxopiperidin-3-yl)-1-oxo-2,3-dihydro-1H-isoindol-5-yl]piperidin-1-yl}-2-hydroxypropyl]phenyl}-1H-pyrrolo[2,3-b]pyridine-3-carbonyl)-2,4-difluorophenyl]-3-fluoropyrrolidine-1-sulfonamide]
3 | 5 to 50 | 35 to 70 | 1 to 10 | > 70 | COc1cc(N2CCC(CN3CCN(c4ccc(-c5cnc6[nH]cc(C(=O)c7c(F)ccc(NS(=O)(=O)N8CC[C@@H](F)C8)c7F)c6c5)cc4)CC3)CC2)ccc1C(=O)N[C@H]1CCC(=O)NC1=O [Compound 357, 4-(4-{[4-(4-{3-[2,6-difluoro-3-({[(3R)-3-fluoropyrrolidin-1-yl]sulfonyl}amino)benzoyl]-1H-pyrrolo[2,3-b]pyridin-5-yl}phenyl)piperazin-1-yl]methyl}piperidin-1-yl)-N-[(3S)-2,6-dioxopiperidin-3-yl]-2-methoxybenzamide]
4 | > 500 | – | > 30 | – | CCc1ccc(NS(=O)(=O)N2CC[C@@H](F)C2)c(F)c1C(=O)c1c[nH]c2ncc(-c3ccc(N4CCC(CN5CCC(c6ccc7c(c6)CN([C@H]6CCC(=O)NC6=O)C7=O)CC5)CC4)cc3)cc12 [Compound 265, (3R)-N-{3-[5-(4-{4-[(4-{2-[(3S)-2,6-dioxopiperidin-3-yl]-1-oxo-2,3-dihydro-1H-isoindol-5-yl}piperidin-1-yl)methyl]piperidin-1-yl}phenyl)-1H-pyrrolo [2,3-b]pyridine-3-carbonyl]-4-ethyl-2-fluorophenyl}-3-fluoropyrrolidine-1-sulfonamide]
5 | 5 to 50 | 35 to 70 | 1 to 10 | > 70 | CNc1cc(-c2cnc3[nH]cc(C(=O)c4c(F)ccc(NS(=O)(=O)N5CC[C@@H](F)C5)c4F)c3c2)ccc1N1CCC(CN2CCC(c3ccc4c(c3)CN([C@H]3CCC(=O)NC3=O)C4=O)CC2)CC1 [Compound 210, (3R)—N-{3-[5-(4-{4-[(4-{2-[(3S)-2,6-dioxopiperidin-3-yl]-1-oxo-2,3-dihydro-1H-isoindol-5-yl}piperidin-1-yl)methyl]piperidin-1-yl}-3-(methylamino)phenyl)-1H-pyrrolo[2,3-b]pyridine-3-carbonyl]-2,4-difluorophenyl}-3-fluoropyrrolidine-1-sulfonamide]
6 | 5 to 50 | 35 to 70 | 1 to 10 | 35 to 70 | O=C1CCC(N2Cc3cc(N4CC5(CC(Oc6ccc(-c7cnc8[nH]cc(C(=O)c9c(F)ccc(NS(=O)(=O)N%10CC[C@@H](F)C%10)c9F)c8c7)cc6)C5)C4)ccc3C2=O)C(=O)N1 (stereo partly drawn) [Compound 1, (3R)-N-(3-{5-[4-({2-[2-(2,6-dioxopiperidin-3-yl)-1-oxo-2,3-dihydro-1H-isoindol-5-yl]-2-azaspiro[3.3]heptan-6-yl}oxy)phenyl]-1H-pyrrolo[2,3-b]pyridine-3-carbonyl}-2,4-difluorophenyl)-3-fluoropyrrolidine-1-sulfonamide]
7 | > 500 | > 70 | 1 to 10 | 35 to 70 | COc1cc(CN2CCN(c3ccc(-c4cnc5[nH]cc(C(=O)c6c(F)ccc(NS(=O)(=O)N7CC[C@@H](F)C7)c6F)c5c4)cc3)CC2)cc2c1C(=O)N(C1CCC(=O)NC1=O)C2 (stereo partly drawn) [Compound 102, (3R)-N-(3-{5-[4-(4-{[2-(2,6-dioxopiperidin-3-yl)-7-methoxy-1-oxo-2,3-dihydro-1H-isoindol-5-yl]methyl}piperazin-1-yl)phenyl]-1H-pyrrolo[2,3-b]pyridine-3-carbonyl}-2,4-difluorophenyl)-3-fluoropyrrolidine-1-sulfonamide]
8 | 5 to 50 | 35 to 70 | 1 to 10 | > 70 | N#Cc1cc(-c2cnc3[nH]cc(C(=O)c4c(F)ccc(NS(=O)(=O)N5CC[C@@H](F)C5)c4F)c3c2)cc(C#N)c1N1CCC(CN2CCC(c3ccc4c(c3)CN(C3CCC(=O)NC3=O)C4=O)CC2)CC1 (stereo partly drawn) [Compound 261, (3R)-N-[3-(5-{3,5-dicyano-4-[4-({4-[2-(2,6-dioxopiperidin-3-yl)-1-oxo-2,3-dihydro-1H-isoindol-5-yl]piperidin-1-yl}methyl)piperidin-1-yl]phenyl}-1H-pyrrolo [2,3-b]pyridine-3-carbonyl)-2,4-difluorophenyl]-3-fluoropyrrolidine-1-sulfonamide]
9 | 5 to 50 | 35 to 70 | 1 to 10 | > 70 | O=C1CCC(N2Cc3cc(N4CCC(O)(CN5CC6(C5)CN(c5ccc(-c7cnc8[nH]cc(C(=O)c9c(F)ccc(NS(=O)(=O)N%10CC[C@@H](F)C%10)c9F)c8c7)cc5)C6)CC4)ccc3C2=O)C(=O)N1 (stereo partly drawn) [Compound 142, (3R)—N-[3-[5-[4-[6-[[1-[2-(2,6-dioxo-3-piperidyl)-1-oxo-isoindolin-5-yl]-4-hydroxy-4-piperidyl]methyl]-2,6-diazaspiro[3.3]heptan-2-yl]phenyl]-1H-pyrrolo[2,3-b]pyridine-3-carbonyl]-2,4-difluoro-phenyl]-3-fluoro-pyrrolidine-1-sulfonamide]
10 | 5 to 50 | 35 to 70 | 1 to 10 | 35 to 70 | CN(CCO)S(=O)(=O)Nc1ccc(F)c(C(=O)c2c[nH]c3ncc(-c4ccc(N5CCC(CN6CCC(c7ccc8c(c7)CN([C@H]7CCC(=O)NC7=O)C8=O)CC6)CC5)cc4)cc23)c1F [Compound 280, (3S)-3-(5-{1-[(1-{4-[3-(2,6-difluoro-3-{[(2-hydroxyethyl)(methyl)sulfamoyl]amino}benzoyl)-1H-pyrrolo[2,3-b]pyridin-5-yl]phenyl}piperidin-4-yl)methyl]piperidin-4-yl}-1-oxo-2,3-dihydro-1H-isoindol-2-yl) piperidine-2,6-dione]
11 | 5 to 50 | 35 to 70 | 1 to 10 | > 70 | O=C1CC[C@H](N2Cc3cc(CC[C@@H](O)CN4CC5(C4)CN(c4ccc(-c6cnc7[nH]cc(C(=O)c8c(F)ccc(NS(=O)(=O)N9CC[C@@H](F)C9)c8F)c7c6)cc4)C5)ccc3C2=O)C(=O)N1 [Compound 327, (3R)-N-{3-[5-(4-{6-[(2R)-4-{2-[(3)S-2,6-dioxopiperidin-3-yl]-1-oxo-2,3-dihydro-1H-isoindol-5-yl}-2-hydroxybutyl]-2,6-diazaspiro[3.3]heptan-2-yl}phenyl)-1H-pyrrolo[2,3-b]pyridine-3-carbonyl]-2,4-difluorophenyl}-3-fluoropyrrolidine-1-sulfonamide]
12 | > 500 | – | 1 to 10 | < 35 | O=C1CCC(N2Cc3cc(N4CCN(CC5CCN(c6ccc(-c7cnc8[nH]cc(C(=O)c9c(F)ccc(NS(=O)(=O)N%10CC[C@@H](F)C%10)c9F)c8c7)cc6)CC5)CC(F)(F)C4)ccc3C2=O)C(=O)N1 (stereo partly drawn) [Compound 333, (3R)-N-[3-(5-{4-[4-({4-[2-(2,6-dioxopiperidin-3-yl)-1-oxo-2,3-dihydro-1H-isoindol-5-yl]-6,6-difluoro-1,4-diazepan-1-yl}methyl)piperidin-1-yl]phenyl}-1H-pyrrolo[2,3-b]pyridine-3-carbonyl)-2,4-difluorophenyl]-3-fluoropyrrolidine-1-sulfonamide]
13 | < 5 | 35 to 70 | 1 to 10 | 35 to 70 | O=C1CCC(N2Cc3cc(N4CCC(CN5CC6(CCN(c7ccc(-c8cnc9[nH]cc(C(=O)c%10c(F)ccc(NS(=O)(=O)N%11CC[C@@H](F)C%11)c%10F)c9c8)cc7F)C6)C5)CC4)ccc3C2=O)C(=O)N1 (stereo partly drawn) [Compound 111, (3R)-N-[3-(5-{4-[2-({1-[2-(2,6-dioxopiperidin-3-yl)-1-oxo-2,3-dihydro-1H-isoindol-5-yl]piperidin-4-yl}methyl) 2,6-diazaspiro[3.4]octan-6-yl]-3-fluorophenyl}-1H-pyrrolo[2,3-b]pyridine-3-carbonyl)-2,4-difluorophenyl]-3-fluoropyrrolidine-1-sulfonamide]
14 | 5 to 50 | 35 to 70 | 1 to 10 | > 70 | O=C1CCC(N2Cc3cc(OCCCCN4CCN(c5ccc(-c6cnc7[nH]cc(C(=O)c8c(F)ccc(NS(=O)(=O)N9CC[C@@H](F)C9)c8F)c7c6)cn5)CC4)ccc3C2=O)C(=O)N1 (stereo partly drawn) [Compound 120, (3R)-N-[3-(5-{6-[4-(4-{[2-(2,6-dioxopiperidin-3-yl)-1-oxo-2,3-dihydro-1H-isoindol-5-yl]oxy}butyl)piperazin-1-yl]pyridin-3-yl}-1H-pyrrolo[2,3-b]pyridine-3-carbonyl)-2,4-difluorophenyl]-3-fluoropyrrolidine-1-sulfonamide]
